# Measurements published in ChEMBL document CHEMBL1157539, “Thousands of chemical starting points for antimalarial lead identification” (Nature, 2010).
# Several values for one entry are separate records, joined by “and”; a condition that tells them apart may be missing. Equal values may be shown once.
# Test system: Plasmodium falciparum
# Assay: GSK_TCMDC: Inhibition of Plasmodium falciparum 3D7 in whole erythrocytes, using parasite LDH activity as an index of growth.
# Type: functional, organism-based
# Conditions: not given
row,Compound,XC50
1,Cc1nc2c(c(O)c1Cl)-c1ccc(Oc3cccc(C(F)(F)F)c3)cc1C2=O,36.9 nM
2,C#CCOc1ccc(CC(C)NCC(O)c2cccc(C(F)(F)F)c2)cc1 (centres undefined),1190 nM
3,O=C(Nc1ccc(Cn2ncc(N3CCCNCC3)c(Cl)c2=O)cc1)Nc1ccc(-c2ccccc2)cc1,815 nM
4,Cc1[nH]c2cc(F)ccc2c(=O)c1Cc1ccc(Cl)cc1.Cc1[nH]c2cccc(F)c2c(=O)c1Cc1ccc(Cl)cc1,232 nM
5,COc1cc(/C=C/C(=O)NC2CCC(CN3CCC(c4c[nH]c5ccccc45)CC3)CC2)ccc1O (centres undefined),791 nM
6,C[C@H](CNc1ccnc(Nc2ccc3[nH]c(=O)[nH]c3c2)n1)c1ccccc1,700 nM
7,COc1ccc(C=CC(=O)NC2CCC(CN3CCC(c4c[nH]c5ccccc45)CC3)CC2)cc1 (centres undefined),807 nM
8,O=C(/C=C/c1c(Cl)cccc1Cl)NC1CCC(CN2CCC(c3c[nH]c4ccccc34)CC2)CC1 (centres undefined),814 nM and 373 nM
9,O=C(/C=C/c1ccccc1Cl)NC1CCC(CN2CCC(c3c[nH]c4ccccc34)CC2)CC1 (centres undefined),849 nM
10,O=C(Nc1cc(C(F)(F)F)cc(C(F)(F)F)c1)NC1CCC(CN2CCC(c3c[nH]c4ccccc34)CC2)CC1 (centres undefined),461 nM
11,O=C(C=Cc1ccc(-c2ccccc2)cc1)NC1CCC(CN2CCC(c3c[nH]c4ccccc34)CC2)CC1 (centres undefined),807 nM
12,O=C(NCCCCN1CCCC2c3ccc(O)cc3CCC21)c1ccc(-c2ccccc2)cc1 (centres undefined),945 nM
13,COc1ccc2nccc([C@@H](O)CN3CCC(NCc4nc5c(cc4Cl)SCC(=O)N5)C(F)C3)c2c1 (some centres undefined),759 nM
14,O=C(/C=C/c1cccc2ccccc12)NC1CCC(CN2CCC(c3c[nH]c4ccccc34)CC2)CC1 (centres undefined),745 nM
15,Cc1ccc(C)c(C=CC(=O)NC2CCC(CN3CCC(c4c[nH]c5ccccc45)CC3)CC2)c1 (centres undefined),698 nM

# Same assay, conditions: Plasmodium falciparum, 3D7
row,Compound,XC50 [nM]
1,CNc1nc(N/N=C/c2cc([N+](=O)[O-])c(Cl)cc2Cl)nc(Nc2cccc(C(F)(F)F)c2)n1,729
2,CCC(C)NC(=O)Nc1cccc(-c2cccc(-c3nc4cccc(C)c4[nH]3)c2)c1 (centres undefined),809
3,Cc1cc(I)ccc1Nc1nc2nonc2nc1Nc1ccc(I)cc1C,510
4,Cn1cc(C(=O)Nc2cccc(-c3cccc(-c4nc5ccccc5[nH]4)c3)c2)n(C)c1=O,715
5,Cc1cccc(-c2nn(-c3ccccc3)cc2C(=O)Nc2nnc(C)o2)c1,1160
6,CCCc1ccc(C(=O)N2C(c3nccs3)C(C(N)=O)CC2(CC(C)C)C(=O)O)cc1 (centres undefined),156
7,Cc1nn(CC(C)C)c2sc(C(=O)Nc3nc(-c4ccccn4)cs3)cc12,961
8,C[C@H](Cc1ccc(CCc2ccc(C[C@@H](C)NC[C@H](O)c3cccc(Cl)c3)cc2)cc1)NC[C@H](O)c1cccc(Cl)c1,935
9,CN(C)CC(=O)Nc1ccc(Nc2nccc(NCC(O)c3ccccc3)n2)cc1 (centres undefined),973
10,Cc1cc(OCCCNC(=N)c2ccc3ccccc3c2)c(C(C)C)cc1Cl,973
11,COc1ccc2c(c1C1CCN(CCCCNC(=O)c3ccc(-c4ccc(Cl)cn4)cc3)CC1)CCCC2,1020
12,CN1CCN(Cc2ccc(-c3ccc4c(Nc5ccc(Oc6ccccn6)cc5)ccnc4c3)o2)CC1,145
13,CN1CCN(c2ccnc3ccc(NC(=O)Cc4ccc(Br)c5ccccc45)cc23)CC1,807
14,COc1cccc(-c2cnc(-c3ccncc3)nc2C2CCN(Cc3ccc(NC(C)=O)cc3)CC2)c1,1500
15,CC(=O)c1ccc(-n2ccnc2)cc1,852
16,COc1cc(Cc2cnc(N)nc2N)ccc1OCc1ccc(-c2csnn2)cc1,628
17,O=c1cc(NCCCNCc2sc(Br)c(Br)c2Br)[nH]c2ccccc12,1010
18,C#CCOc1ccc(CC(C)NCC(O)c2cccc(C(F)(F)F)c2)cc1 (centres undefined),1030
19,CC(=O)Nc1ccc(C(=O)Nc2cccc(-c3ccc(-c4nc5ccccc5[nH]4)s3)c2)cn1,180
20,Cc1noc(C)c1-c1ccc2c(Nc3ccccc3C(C)(C)C)c(C(=O)NCc3ccc(OC(C)C)cc3)cnc2c1,908
21,COc1cc2ncnc(Nc3ccc(OCc4ccccc4Br)c(Cl)c3)c2cc1OC,1280
22,O=C(Nc1ccc(-c2nc3ccccc3[nH]2)cc1)C1CCN(Cc2cccc(F)c2F)CC1,1100
23,CC(Cc1ccc(NC(=O)COc2ccc(CC(C)NCCc3cccc(Cl)c3)cc2)cc1)NCCc1cccc(Cl)c1 (centres undefined),84.3

row,Compound,XC50 [nM]
1,CCC1(CC)NC(N)=NC(=N)N1OCc1ccc(Cl)c(Cl)c1,58.5
2,O=C(C=Cc1ccc(-c2ccccc2)cc1)N1CCC(CCN2CCC(c3c[nH]c4ccccc34)CC2)CC1,1120
3,CCCCCC(C)(C)NC[C@@H](O)[C@H](Cc1ccccc1)NC(=O)c1cc(NCC)cc(N2CCCC2=O)c1,674
4,Cc1cc(NCCCCCCN)nc(Nc2ccc(Cl)cc2)n1,448
5,Cn1cncc1C(=O)Nc1cccc(-c2cccc(-c3nc4ccccc4[nH]3)c2)c1,635
6,N#Cc1ccc(CN2CCCN(c3ccc(NC(=O)c4ccc(F)cc4)cc3)CC2)cc1,1280
7,CCCC(C)Nc1nc(C)cc(N[C@@H](CC(C)C)C(=O)Nc2ccc(OC)cc2)n1 (some centres undefined),866
8,N#Cc1ccc(C=CC(=O)NC2CCC(CCN3CCc4ccc(-c5cnccn5)cc4CC3)CC2)cc1 (centres undefined),613
9,COc1ccc(S(=O)(=O)NC2CCN(CCCOc3ccnc4cc(Cl)ccc34)C2)cc1OC (centres undefined),1050
10,CN1CCN(c2ccnc3ccc(NC(=O)Nc4ccc5ccccc5c4)cc23)CC1,76.6
11,CN1CCN(Cc2ccc(-c3ccc4c(Nc5ccc(Oc6ccccc6)cc5)ccnc4c3)o2)CC1,177
12,O=C(/C=C/c1ccc(Cl)c(Cl)c1)NC1CCC(CN2CCC(c3nc4cc(O)ccc4[nH]3)CC2)CC1 (centres undefined),241
13,c1cc(CN2CCN(c3ccncc3)CC2)cc(-c2ccc(-c3nc4ccccc4[nH]3)s2)c1,148
14,CCCCCCN1CCN(Cc2cccc(NC(=O)c3cc4ccccc4o3)c2)CC1,909
15,Cc1[nH]c2cc(F)ccc2c(=O)c1Cc1ccc(Cl)cc1.Cc1[nH]c2cccc(F)c2c(=O)c1Cc1ccc(Cl)cc1,348
16,CN1CCCN(Cc2ccc(-c3ccc(NS(=O)(=O)c4cccc5cccnc45)cc3)cc2)CC1,694
17,CCOC(=O)c1c[nH]c2c(sc3cc(OC)ccc32)c1=O,387
18,COc1cc(/C=C/C(=O)NC2CCC(CN3CCC(c4c[nH]c5ccccc45)CC3)CC2)ccc1O (centres undefined),809
19,CCN(CC)CCCN1CCN(C(=O)c2cccc(-c3noc(C(F)(F)F)n3)c2)CC1,154
20,O=c1cc(NCCCNCc2ccc(Cl)c(Cl)c2)[nH]c2ccc(Cl)cc12,344
21,c1cc(CN2CCN(CCN3CCOCC3)CC2)cc(-c2cccc(-c3nc4ccccc4[nH]3)c2)c1,236
22,COc1ccc(C=CC(=O)NC2CCC(CN3CCC(c4c[nH]c5ccccc45)CC3)CC2)cc1 (centres undefined),782
23,Cc1ccc(C(=O)Nc2ccc(Nc3ccnc4cc(-c5ccccn5)ccc34)cc2O)cc1,111

row,Compound,XC50 [nM]
1,CCCCCc1ccc(NC(=O)Nc2ccc(Cn3ncc(N4CCCNCC4)c(Cl)c3=O)cc2)cc1,1140
2,N#Cc1ccc2c(c1)CCN(CCCn1c(-c3ccc4ccccc4c3)nc3ccncc31)CC2,198
3,CN1CCC(N2CCN(Cc3cccc(-c4ccc(-c5nc6cc(C(F)(F)F)ccc6[nH]5)cc4)c3)CC2)CC1,140
4,O=C(/C=C/c1ccccc1Cl)NC1CCC(CN2CCC(c3c[nH]c4ccccc34)CC2)CC1 (centres undefined),603
5,O=C(Nc1cc(C(F)(F)F)cc(C(F)(F)F)c1)NC1CCC(CN2CCC(c3c[nH]c4ccccc34)CC2)CC1 (centres undefined),810
6,O=C(C=Cc1ccc(-c2ccccc2)cc1)NC1CCC(CN2CCC(c3c[nH]c4ccccc34)CC2)CC1 (centres undefined),738
7,O=C(NCCCCN1CCC(c2ccc3c(c2OCc2ccncc2)CCCC3)CC1)c1ccc(NC(=O)c2ccc(Cl)cc2)cc1,218
8,CN1CCN(c2nc(NCCc3ccc(O)cc3)nc(NCc3ccccc3-c3ccc(C(F)(F)F)cc3)n2)CC1,971
9,Oc1ccc2ccccc2c1C=NNc1nc(=Nc2ccccc2)nc(N2CCOCC2)[nH]1,885
10,COc1ccc(NC(=O)Nc2ccc(-c3ccccc3)cc2)cc1Cn1nc(Cl)c(N2CCCNCC2)cc1=O,364
11,O=C(CSc1nccn1Cc1ccco1)Nc1cc(C(F)(F)F)ccc1Cl,822
12,N#Cc1ccc(CN2CCCN(Cc3cccc(NC(=O)c4ccc(Cl)c(Cl)c4)c3)CC2)cc1,850
13,Nc1ccc2[nH]cc(C3CCN(CCC4CCN(C(=O)/C=C/c5ccc(Cl)c(Cl)c5)CC4)CC3)c2n1,737
14,O=S(=O)(NCCN1CCCC1)c1ccc(-c2ccc(CNCc3ccsc3)cc2)cc1F,810
15,Cc1cc(N[C@@H](Cc2ccccc2)C(=O)NC2CCCC2)nc(Nc2ccccc2)n1,828
16,O=C(NCCCCN1CCN(c2ccc3c(c2)CCC3)CC1)c1ccc(NC(=O)c2ccc(Cl)cc2)cc1,677
17,Cc1ccc(O)c(-c2cc(C(=O)Nc3ccc(S(=O)(=O)N4CCCCCC4)cc3)[nH]n2)c1,711
18,c1cc(-c2ccc(CNCCCn3ccnc3)cc2)cc(-c2nc3ccccc3[nH]2)c1,113
19,N#CCCN1CCN(Cc2cccc(-c3ccc(-c4nc5cc(C(F)(F)F)ccc5[nH]4)cc3)c2)CC1,744
20,O=C(NCCCCN1CCCC2c3ccc(O)cc3CCC21)c1ccc(-c2ccccc2)cc1 (centres undefined),732
21,Cc1cccc2nc(-c3cccc(-c4cccc(CNCCNC(=O)c5ccnn5C)c4)c3)[nH]c12,192
22,CCCCCCOc1ccc(/C(N)=N\Cc2ccccc2)c2c1CCCC2,1270
23,COc1ccc2nc(C)cc(N/N=C/C=C/c3ccccc3)c2c1,701

row,Compound,XC50 [nM]
1,CC(C)CCNC(=O)C1Cc2c([nH]c3ccc(Br)cc23)C2(CCN(Cc3ccccc3)CC2)N1 (centres undefined),817
2,COc1ccc2nccc([C@@H](O)CN3CCC(NCc4nc5c(cc4Cl)SCC(=O)N5)C(F)C3)c2c1 (some centres undefined),505
3,CC1(C)NC(N)=NC(=N)N1OCCc1ccc(N)cc1,3.2
4,CCc1c(CCNCCCCCCNCCc2ccc(Br)cc2)ccc(OC)c1OC,232
5,Cc1cc(OC(C)C(=O)N2CCc3ccccc32)ccc1Cl (centres undefined),785
6,COc1ccc(CCn2c(=N)c(C(=O)NCc3cccnc3)cc3c(=O)n4ccccc4nc32)cc1,883
7,Cc1cccc2nc(-c3ccc(-c4cccc(NC(=O)NCc5cccc(F)c5)c4)cc3)[nH]c12,853
8,COC(=O)c1cccc(NC(=O)NCCNc2ccnc(Nc3ccc(F)cc3)n2)c1,837
9,COc1cc(-c2nc(-c3ccncc3)c(-c3ccc4c(c3)CCC4=NO)[nH]2)ccc1OCCN1CCN(C)CC1,756
10,O=C(/C=C/c1cccc2ccccc12)NC1CCC(CN2CCC(c3c[nH]c4ccccc34)CC2)CC1 (centres undefined),666
11,COc1ccc2nccc([C@@H](O)CN3CCC(NC(=O)/C=C/c4cccc(-c5ccccc5)c4)CC3)c2c1,248
12,Cc1ccc(C)c(C=CC(=O)NC2CCC(CN3CCC(c4c[nH]c5ccccc45)CC3)CC2)c1 (centres undefined),765
13,O=C(NC1CCN(CCCc2ccccc2)CC1)c1ccc(-c2cccc(C(F)(F)F)c2)s1,894
14,COC(=O)/C=C/c1ccc(CC(C)NCC(O)c2cccc(Cl)c2)cc1 (centres undefined),751
15,Cc1cc(N)nc2ccc(-c3cccc(CN)c3)cc12,707
16,O=C(Nc1ccc(Cl)cc1)Nc1cccc(-c2ccc(-c3nc4cc(F)ccc4[nH]3)cc2)c1,47.5
17,OC(CNc1ccnc(Nc2ccc(Cl)cc2)n1)c1cccc(C(F)(F)F)c1 (centres undefined),676
18,O=C(Nc1ccc(CCNCCCc2ccccc2)cc1)Nc1ccc(Cl)c(Cl)c1,273
19,Cc1cc(NC(c2ccc(Cl)cc2)c2ccc3cccnc3c2O)no1 (centres undefined),1090
20,C=C[C@H]1CN(CCCCCCC)CC[C@H]1CC(=O)Nc1cnnc2ccc(OC)cc12,529
